Source: PubChem BioAssay AID248 (DTP/NCI, 2004)
Where “and” joins values, the source holds several entries; their conditions need not be identical. Equal values may be shown once. Inconclusive results and toxic doses are left out.

Test system: L1210 leukemia ip in BDF1 mice, survival T/C
Assay: NCI In Vivo Anticancer Drug Screen. Data for tumor model L1210 Leukemia (intraperitoneal) in B6D2F1 (BDF1) mice
Settings: endpoint: mean survival time, higher = longer survival
In short: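 Transplantable tumor model; survival measured in treated vs vehicle control mice. Value = treated/control.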

[1] = dose: 50.0 mg/kg/injection, schedule: Q01DX009 (ip), vehicle: saline with Tween-80
[2] = dose: 100.0 mg/kg/injection, schedule: Q01DX009 (ip), vehicle: saline with Tween-80
[3] = dose: 200.0 mg/kg/injection, schedule: Q01DX009 (ip), vehicle: saline with Tween-80
[4] = dose: 100.0 mg/kg/injection, schedule: Q04DX002 (ip), vehicle: saline

**Q.** What does the source list for Nc1ccccc1S(=O)(=O)F?
**A.** T/C (dose: 75.0 mg/kg/injection, schedule: Q04DX003 (ip), vehicle: Klucel (hydroxypropylcellulose) (HPC)): 100 % of control; T/C (dose: 100.0 mg/kg/injection, schedule: Q01DX001 (ip), vehicle: carboxymethylcellulose (CMC)): 98 % of control; T/C (dose: 150.0 mg/kg/injection, schedule: Q04DX003 (ip), vehicle: Klucel (hydroxypropylcellulose) (HPC)): 94 % of control; T/C (dose: 200.0 mg/kg/injection, schedule: Q01DX001 (ip), vehicle: carboxymethylcellulose (CMC)): 98 % of control; T/C (dose: 300.0 mg/kg/injection, schedule: Q04DX003 (ip), vehicle: Klucel (hydroxypropylcellulose) (HPC)): 96 % of control; T/C (dose: 400.0 mg/kg/injection, schedule: Q01DX001 (ip), vehicle: carboxymethylcellulose (CMC)): 101 % of control

**Q.** With CCC/C=N/Nc1ccnc(SC)n1 as the molecule, how does the T/C (dose: 100.0 mg/kg/injection, schedule: Q01DX009 (ip), vehicle: gum acacia) read?
**A.** The T/C was 97 % of control.

**Q.** Cc1ccccc1/C=C1\CC(C)(C)c2ccccc2C1=O was tested. Which T/C (dose: 100.0 mg/kg/injection, schedule: Q01DX009 (ip), vehicle: Klucel (hydroxypropylcellulose) (HPC)) did it give?
**A.** Its T/C is 105 % of control.

**Q.** What about the T/C (dose: 100.0 mg/kg/injection, schedule: Q04DX003 (ip), vehicle: Klucel (hydroxypropylcellulose) (HPC)) of the same molecule?
**A.** Its T/C is 95 % of control.

**Q.** What about the T/C (dose: 200.0 mg/kg/injection, schedule: Q01DX009 (ip), vehicle: Klucel (hydroxypropylcellulose) (HPC)) of the same molecule?
**A.** Its T/C is 97 % of control.

**Q.** And the T/C (dose: 200.0 mg/kg/injection, schedule: Q04DX003 (ip), vehicle: Klucel (hydroxypropylcellulose) (HPC))?
**A.** The T/C was 95 % of control.

**Q.** What about the T/C (dose: 400.0 mg/kg/injection, schedule: Q01DX009 (ip), vehicle: Klucel (hydroxypropylcellulose) (HPC)) of the same molecule?
**A.** The T/C was 97 % of control.

**Q.** What about the T/C (dose: 400.0 mg/kg/injection, schedule: Q04DX003 (ip), vehicle: Klucel (hydroxypropylcellulose) (HPC)) of the same molecule?
**A.** Its T/C is 97 % of control.

**Q.** With COc1ccc(Cc2nnc(Cc3ccc(OC)c(OC)c3)nn2)cc1OC as the molecule, how does the T/C [1] read?
**A.** The T/C was 89 % of control.

**Q.** And the T/C [2]?
**A.** The T/C was 93 % of control.

**Q.** And the T/C [3]?
**A.** The T/C was 87 % of control.

**Q.** How did the T/C (dose: 75.0 mg/kg/injection, schedule: Q01DX001 (ip), vehicle: other) turn out when CCOC(=O)C(C#N)C(=N)C1CC(C)(C)OC1=O (centres undefined) was run?
**A.** Its T/C is 101 % of control.

**Q.** What about the T/C (dose: 150.0 mg/kg/injection, schedule: Q01DX001 (ip), vehicle: other) of the same molecule?
**A.** The T/C was 106 % of control.

**Q.** Which results are given for Nc1nc([Se])c2ncn(C3CC(O)C(CO)O3)c2n1 (centres undefined)?
**A.** T/C (dose: 12.5 mg/kg/injection, schedule: Q01DX009 (ip), vehicle: saline): 196 % of control; T/C (dose: 25.0 mg/kg/injection, schedule: Q01DX005 (ip), vehicle: saline): 150 % of control and 151 % of control; T/C (dose: 25.0 mg/kg/injection, schedule: Q01DX009 (ip), vehicle: saline): 171 % of control; T/C (dose: 50.0 mg/kg/injection, schedule: Q01DX005 (ip), vehicle: saline): 123 % of control; T/C (dose: 50.0 mg/kg/injection, schedule: Q01DX009 (ip), vehicle: saline): 150 % of control

**Q.** O=C(CCl)NCC(NC(=O)CCl)C(=O)O (centres undefined) was tested. Which T/C [4] did it give?
**A.** Its T/C is 115 % of control.

**Q.** And the T/C (dose: 200.0 mg/kg/injection, schedule: Q04DX002 (ip), vehicle: saline)?
**A.** Its T/C is 105 % of control.

**Q.** What about the T/C (dose: 400.0 mg/kg/injection, schedule: Q04DX002 (ip), vehicle: saline) of the same molecule?
**A.** Its T/C is 112 % of control.

**Q.** How did the T/C (dose: 100.0 mg/kg/injection, schedule: Q01DX001 (ip), vehicle: Klucel (hydroxypropylcellulose) (HPC)) turn out when CC(=O)Nc1ccc(-c2ccccc2)cc1 was run?
**A.** The T/C was 99 % of control.

**Q.** And the T/C [2]?
**A.** The T/C was 110 % of control.

**Q.** What about the T/C (dose: 200.0 mg/kg/injection, schedule: Q01DX001 (ip), vehicle: Klucel (hydroxypropylcellulose) (HPC)) of the same molecule?
**A.** Its T/C is 99 % of control.

**Q.** And the T/C [3]?
**A.** Its T/C is 86 % of control.

**Q.** For Cc1cc(C2=NCC(C)(C)S2)ccc1O, which T/C (dose: 25.0 mg/kg/injection, schedule: Q01DX005 (ip), vehicle: saline with Tween-80) is on record?
**A.** The T/C was 92 % of control.

**Q.** And the T/C (dose: 25.0 mg/kg/injection, schedule: Q01DX009 (ip), vehicle: saline with Tween-80)?
**A.** The T/C was 91 % of control.

**Q.** And the T/C (dose: 50.0 mg/kg/injection, schedule: Q01DX005 (ip), vehicle: saline with Tween-80)?
**A.** Its T/C is 92 % of control.

**Q.** What about the T/C [1] of the same molecule?
**A.** Its T/C is 98 % of control.

**Q.** What about the T/C (dose: 100.0 mg/kg/injection, schedule: Q01DX005 (ip), vehicle: saline with Tween-80) of the same molecule?
**A.** Its T/C is 93 % of control and 105 % of control.

**Q.** And the T/C [2]?
**A.** Its T/C is 98 % of control.

**Q.** And the T/C (dose: 100.0 mg/kg/injection, schedule: Q04DX002 (ip), vehicle: saline with Tween-80)?
**A.** Its T/C is 100 % of control.

**Q.** And the T/C (dose: 200.0 mg/kg/injection, schedule: Q04DX002 (ip), vehicle: saline with Tween-80)?
**A.** The T/C was 96 % of control.

**Q.** And the T/C (dose: 400.0 mg/kg/injection, schedule: Q04DX002 (ip), vehicle: saline with Tween-80)?
**A.** Its T/C is 88 % of control.

**Q.** For N=C(N)SCc1ccc(Cl)cc1, which T/C (dose: 25.0 mg/kg/injection, schedule: Q04DX002 (ip), vehicle: saline) is on record?
**A.** The T/C was 98 % of control.

**Q.** What about the T/C (dose: 50.0 mg/kg/injection, schedule: Q04DX002 (ip), vehicle: saline) of the same molecule?
**A.** The T/C was 94 % of control.

**Q.** What about the T/C [4] of the same molecule?
**A.** The T/C was 101 % of control.

**Q.** Which T/C (dose: 100.0 mg/kg/injection, schedule: Q04DX003 (ip), vehicle: saline) does the source give for Nc1nc(Br)cs1 here?
**A.** The T/C was 102 % of control.

**Q.** And the T/C (dose: 200.0 mg/kg/injection, schedule: Q04DX003 (ip), vehicle: saline)?
**A.** The T/C was 102 % of control.
